In this test the test system is P388 leukemia ip, CD2F1 mice, survival T/C. The test can be described thus: NCI In Vivo Anticancer Drug Screen. Data for tumor model P388 Leukemia (intraperitoneal) in CD2F1 (CDF1) mice. As to conditions: endpoint: median survival time, higher = longer survival. In short, it runs like this: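 Mice carrying the transplanted tumor received test compound or vehicle. Survival was recorded in each group, and the value is the treated-group measurement divided by that of the vehicle-treated control group.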

[1] abbreviates: dose: 60.0 mg/kg/injection, schedule: Q01DX005 (ip), vehicle: saline.
Setting [2] is: dose: 25.0 mg/kg/injection, schedule: Q01DX009 (ip), vehicle: saline with Tween-80.
Where [3] appears, read: dose: 50.0 mg/kg/injection, schedule: Q01DX009 (ip), vehicle: saline with Tween-80.

“And” between values parts separate entries of the source, which are not always exact repeats. Identical values can stand only once. Inconclusive results and toxic doses are left out.

`COC(=O)C[C@H]1[C@]2(C)C[C@@]34OC5(C)O[C@]6([C@@H]7CC(=O)OC(c8ccoc8)[C@]7(C)[C@@H](OC(C)=O)C[C@]6(O5)[C@@]13C)[C@H](OC(=O)C(C)C)[C@]4(O)[C@H]2OC(=O)C(C)C` (stereo partly drawn): the T/C was 95 % of control (dose: 0.37 mg/kg/injection, schedule: Q01DX009 (ip), vehicle: Klucel (hydroxypropylcellulose) (HPC)); 94 % of control (dose: 0.75 mg/kg/injection, schedule: Q01DX009 (ip), vehicle: Klucel (hydroxypropylcellulose) (HPC)); 98 % of control (dose: 1.5 mg/kg/injection, schedule: Q01DX009 (ip), vehicle: Klucel (hydroxypropylcellulose) (HPC)); 93 % of control (dose: 3.0 mg/kg/injection, schedule: Q01DX009 (ip), vehicle: Klucel (hydroxypropylcellulose) (HPC)).

Consider `CCOP(=O)(OCC)C(=O)c1ccccc1`, for which the T/C reads like this: under setting [1], 100 % of control; (dose: 120.0 mg/kg/injection, schedule: Q01DX005 (ip), vehicle: saline) 103 % of control; (dose: 240.0 mg/kg/injection, schedule: Q01DX005 (ip), vehicle: saline) 105 % of control.

`Cc1nc(N)cc(=O)[nH]1`: the T/C was 89 % of control (dose: 50.0 mg/kg/injection, schedule: Q01DX009 (ip), vehicle: suspension in saline); 93 % of control (dose: 100.0 mg/kg/injection, schedule: Q01DX009 (ip), vehicle: suspension in saline); 91 % of control (dose: 200.0 mg/kg/injection, schedule: Q01DX009 (ip), vehicle: suspension in saline); 101 % of control (dose: 400.0 mg/kg/injection, schedule: Q01DX009 (ip), vehicle: suspension in saline).

For `CNc1nc(N(C)C)nc(N(C)C)n1`, the T/C is 105 % of control and 96 % of control (dose: 6.25 mg/kg/injection, schedule: Q01DX009 (ip), vehicle: water); 105 % of control (dose: 12.5 mg/kg/injection, schedule: Q01DX009 (ip), vehicle: water); 102 % of control (dose: 16.0 mg/kg/injection, schedule: Q03HX008 (ip), vehicle: water); 96 % of control (dose: 16.0 mg/kg/injection, schedule: Q03HX016 (ip), vehicle: water); 96 % of control (dose: 16.0 mg/kg/injection, schedule: Q03HX024 (ip), vehicle: water); 105 % of control (dose: 25.0 mg/kg/injection, schedule: Q01DX009 (ip), vehicle: water). For the same molecule, the T/C reads like this: (dose: 30.0 mg/kg/injection, schedule: Q01DX009 (ip), vehicle: water) 104 % of control; (dose: 32.0 mg/kg/injection, schedule: Q01DX005 (ip), vehicle: water) 99 % of control; (dose: 32.0 mg/kg/injection, schedule: Q01DX009 (ip), vehicle: water) 86 % of control; (dose: 32.0 mg/kg/injection, schedule: Q01DX009 (oral), vehicle: water) 110 % of control; (dose: 32.0 mg/kg/injection, schedule: Q01DX009 (sc), vehicle: water) 106 % of control; (dose: 32.0 mg/kg/injection, schedule: Q03HX008 (ip), vehicle: water) 103 % of control. Moreover, the T/C reads like this: (dose: 32.0 mg/kg/injection, schedule: Q03HX016 (ip), vehicle: water) 100 % of control; (dose: 32.0 mg/kg/injection, schedule: Q03HX024 (ip), vehicle: water) 114 % of control; (dose: 44.0 mg/kg/injection, schedule: Q01DX009 (ip), vehicle: water) 104 % of control; (dose: 50.0 mg/kg/injection, schedule: Q01DX009 (ip), vehicle: water) 112 % of control; (dose: 64.0 mg/kg/injection, schedule: Q01DX001 (ip), vehicle: water) 102 % of control; (dose: 64.0 mg/kg/injection, schedule: Q01DX001 (oral), vehicle: water) 103 % of control. The T/C was 109 % of control (dose: 64.0 mg/kg/injection, schedule: Q01DX005 (ip), vehicle: water); 93 % of control (dose: 64.0 mg/kg/injection, schedule: Q01DX009 (ip), vehicle: water); 115 % of control (dose: 64.0 mg/kg/injection, schedule: Q01DX009 (oral), vehicle: water); 117 % of control (dose: 64.0 mg/kg/injection, schedule: Q01DX009 (sc), vehicle: water); 105 % of control (dose: 64.0 mg/kg/injection, schedule: Q04DX003 (ip), vehicle: water); 103 % of control (dose: 64.0 mg/kg/injection, schedule: Q08DX002 (ip), vehicle: water). For the same molecule, the T/C was 116 % of control (dose: 67.0 mg/kg/injection, schedule: Q01DX009 (ip), vehicle: water); 102 % of control (dose: 128.0 mg/kg/injection, schedule: Q01DX001 (ip), vehicle: water); 101 % of control (dose: 128.0 mg/kg/injection, schedule: Q01DX001 (oral), vehicle: water); 99 % of control (dose: 128.0 mg/kg/injection, schedule: Q01DX005 (ip), vehicle: water); 96 % of control (dose: 128.0 mg/kg/injection, schedule: Q01DX009 (oral), vehicle: water); 86 % of control (dose: 128.0 mg/kg/injection, schedule: Q01DX009 (sc), vehicle: water). Further, the T/C was 112 % of control (dose: 128.0 mg/kg/injection, schedule: Q04DX003 (ip), vehicle: water); 114 % of control (dose: 128.0 mg/kg/injection, schedule: Q08DX002 (ip), vehicle: water); 100 % of control (dose: 256.0 mg/kg/injection, schedule: Q01DX001 (oral), vehicle: water).

For `COC(=O)CC(=O)C(C)SC` (stereo not drawn), the T/C is 100 % of control under setting [2]; 109 % of control under setting [3]; 97 % of control (dose: 100.0 mg/kg/injection, schedule: Q01DX009 (ip), vehicle: saline with Tween-80).

Turning to `CCOC(=O)Cn1nc2oc(=O)c(CCN3CCN(c4ccccc4OC)CC3)c(C)c2c1C`, the T/C is 103 % of control (dose: 25.0 mg/kg/injection, schedule: Q01DX005 (ip), vehicle: Klucel (hydroxypropylcellulose) (HPC)); 100 % of control (dose: 50.0 mg/kg/injection, schedule: Q01DX005 (ip), vehicle: Klucel (hydroxypropylcellulose) (HPC)); 87 % of control (dose: 100.0 mg/kg/injection, schedule: Q01DX005 (ip), vehicle: Klucel (hydroxypropylcellulose) (HPC)); 109 % of control (dose: 200.0 mg/kg/injection, schedule: Q01DX005 (ip), vehicle: Klucel (hydroxypropylcellulose) (HPC)).

Turning to `COc1ccc(N(CN2C(=O)CCC2=O)CS(=O)(=O)c2ccc(C)cc2)cc1`, the T/C by setting is: (dose: 60.0 mg/kg/injection, schedule: Q01DX005 (ip), vehicle: Klucel (hydroxypropylcellulose) (HPC)) 100 % of control; (dose: 120.0 mg/kg/injection, schedule: Q01DX005 (ip), vehicle: Klucel (hydroxypropylcellulose) (HPC)) 100 % of control; (dose: 240.0 mg/kg/injection, schedule: Q01DX005 (ip), vehicle: Klucel (hydroxypropylcellulose) (HPC)) 100 % of control.

For `O=[N+]([O-])c1ccc(-c2sc(-c3ccccc3)nc2O)cc1`, the T/C reads like this: (dose: 12.5 mg/kg/injection, schedule: Q01DX009 (ip), vehicle: saline with Tween-80) 100 % of control; under setting [2], 98 % of control; under setting [3], 91 % of control and 94 % of control; (dose: 200.0 mg/kg/injection, schedule: Q01DX009 (ip), vehicle: saline with Tween-80) 88 % of control.

In the case of `O=C(CCCc1ccc(N(CCCl)CCCl)cc1)NCC(O)C(O)C(O)C(O)CO` (stereo not drawn), the T/C is 187 % of control (dose: 15.0 mg/kg/injection, schedule: Q01DX005 (ip), vehicle: saline with Tween-80); 201 % of control and 206 % of control (dose: 30.0 mg/kg/injection, schedule: Q01DX005 (ip), vehicle: saline with Tween-80); 235 % of control and 250 % of control (dose: 60.0 mg/kg/injection, schedule: Q01DX005 (ip), vehicle: saline with Tween-80).

Regarding `Cc1csc2ncnc(N)c12`, the T/C reads like this: (dose: 50.0 mg/kg/injection, schedule: Q04DX003 (ip), vehicle: Klucel (hydroxypropylcellulose) (HPC)) 106 % of control; (dose: 100.0 mg/kg/injection, schedule: Q04DX003 (ip), vehicle: Klucel (hydroxypropylcellulose) (HPC)) 115 % of control; (dose: 200.0 mg/kg/injection, schedule: Q04DX003 (ip), vehicle: Klucel (hydroxypropylcellulose) (HPC)) 108 % of control.

As to `NC(Cc1ccccc1)C(=O)Nc1cccnc1` (stereo not drawn), the T/C is 98 % of control (dose: 15.0 mg/kg/injection, schedule: Q01DX005 (ip), vehicle: saline); 102 % of control (dose: 30.0 mg/kg/injection, schedule: Q01DX005 (ip), vehicle: saline); 102 % of control and 105 % of control under setting [1].

Turning to `c1ccc2cc(OCC(COc3ccc4ccccc4c3)(COc3ccc4ccccc4c3)COc3ccc4ccccc4c3)ccc2c1`, the T/C (dose: 7.5 mg/kg/injection, schedule: Q01DX009 (ip), vehicle: saline with Tween-80) is 89 % of control.

(Values after PubChem BioAssay AID330 (DTP/NCI, 2004).)
